Measured values: patent US20230407243A1, “GENETIC PLATFORM TO INVESTIGATE THE FUNCTIONS OF BACTERIAL DRUG EFFLUX PUMPS” (priority 2022, published 2023)
Read-outs that look alike come from different tables or passages of the source.

Columns and labels:
Format in all cases: cell-based, Escherichia coli
EKO-35 araC::acrBD408A = test: MIC susceptibility profiling, efflux platform; settings: Escherichia coli; Table 13B; non-porinated; technical duplicate; read-out: Minimum Inhibitory Concentration, EKO-35 araC::acrBD408A
In short: (§1)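 Overnight LB cultures were grown at 37 °C with aeration, then washed into PBS, pH 7.4, to OD600 ~1.0. A 1/2000 dilution in MHB II was exposed to compound dilution series for 18 h at 37 °C. The MIC was taken from corrected OD600.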

EKO-35 araC::acrB = test: MIC susceptibility profiling, efflux platform; settings: Escherichia coli; Table 13A; non-porinated; technical duplicate; read-out: Minimum Inhibitory Concentration, EKO-35 araC::acrB
In short: as §1

EKO-35 araC::acrD = test: MIC susceptibility profiling, efflux platform; settings: Escherichia coli; Table 13A; non-porinated; technical duplicate; read-out: Minimum Inhibitory Concentration, EKO-35 araC::acrD
In short: as §1

EKO-35 araC::acrEF = test: MIC susceptibility profiling, efflux platform; settings: Escherichia coli; Table 13A; non-porinated; technical duplicate; read-out: Minimum Inhibitory Concentration, EKO-35 araC::acrEF
In short: as §1

EKO-35 araC::emrAB = test: MIC susceptibility profiling, efflux platform; settings: Escherichia coli; Table 13B; non-porinated; technical duplicate; read-out: Minimum Inhibitory Concentration, EKO-35 araC::emrAB
In short: as §1

EKO-35 araC::emrKY = test: MIC susceptibility profiling, efflux platform; settings: Escherichia coli; Table 13B; non-porinated; technical duplicate; read-out: Minimum Inhibitory Concentration, EKO-35 araC::emrKY
In short: as §1

EKO-35 araC::macAB = test: MIC susceptibility profiling, efflux platform
In short: as §1

[1] = system: EKO-35 araC::mexCD (MexCD from P. aeruginosa); test: MIC susceptibility profiling, efflux platform; settings: Table 13B; non-porinated; technical duplicate; read-out: Minimum Inhibitory Concentration, EKO-35 araC::mexCD
In short: as §1

EKO-35 acrBD408A = system: EKO-35 acrBD408A
Protocol: (§2) Synergy measurement using checkerboard analysis was performed in 96-well microtiter plates using the microdilution broth method, according to CLSI guidelines (Patel J. B., 2015). The cell inocula were prepared using the colony resuspension method. The minimum inhibitory concentrations (MICs) were defined as the lowest concentration that provided no growth, as determined by measurement of the OD600nm using a Synergy H1 microplate reader (BioTek). Susceptibility testing was performed in MHB II with a final volume of 100 μL. PAI3N (Bachem Americas) was solubilized in MHB II. […] Solvent controls were included in each plate.
(§3) The Fractional Inhibitory Concentration Index (FICI) was used to assess the synergy of PAI3N in combination with different antibiotics. The FICI represents the ΣFIC of each drug. The FICI for each drug was calculated using the following formula: FICI=FICA+FICB=(CA/MICA)+(CB/MICB). Where MICA and MICB are the MICs of drugs A (PAI3N/NMP) and B (antibiotic) alone, and CA and CB are the MICs of the drugs in combination. The effects of PAβN or NMP in combination with antibiotics were classified as: synergistic (FICI<0.5), additive (FICI>0.5-1.0), indifferent (FICI>1.0-2.0), and antagonistic (FICI>2.0). Fold increases in resistance provided by efflux pumps were calculated by dividing the MIC values of strains expressing efflux pumps by the MIC value of EKO-35.

EKO-35 = system: EKO-35
Protocol: as §2, §3

ΔtolC-Pore = system: ΔtolC-Pore
Protocol: as §2, §3

ΔtolC = system: ΔtolC
Protocol: as §2, §3

[2] = EKO-35 acrBD408A, NMP + antibiotic
[3] = EKO-35 acrBD408A, PAβN + antibiotic
[4] = strain EKO-35 acrBD408A, NMP + antibiotic
[5] = strain ΔtolC Pore, NMP + antibiotic

CC[C@H]1OC(=O)[C@H](C)[C@@H](O[C@H]2C[C@@](C)(OC)[C@@H](O)[C@H](C)O2)[C@H](C)[C@@H](O[C@@H]2O[C@H](C)C[C@H](N(C)C)[C@H]2O)[C@](C)(O)C[C@@H](C)C(=O)[C@H](C)[C@@H](O)[C@]1(C)O [erythromycin]
MIC (EKO-35 araC::acrBD408A): 3.12 µg/mL
MIC (EKO-35 araC::acrB): 100 µg/mL
MIC (EKO-35 araC::acrD): 3.12 µg/mL
MIC (EKO-35 araC::acrEF): 50 µg/mL
MIC (EKO-35 araC::emrAB): 3.12 µg/mL
MIC (EKO-35 araC::emrKY): 3.12 µg/mL
MIC (EKO-35 araC::macAB; Escherichia coli, Table 13B, non-porinated, technical duplicate, read-out: Minimum Inhibitory Concentration, EKO-35 araC::macAB): 12.5 µg/mL
efflux pump-mediated resistance vs EKO-35 (EKO-35 araC::macAB; MacAB): specific
MIC [1]: 25 µg/mL
Effect (EKO-35 acrBD408A; [2]): Synergistic
FICI (EKO-35 acrBD408A; [2]): 0.500
Effect (EKO-35 acrBD408A; [3]): Synergistic
FICI (EKO-35 acrBD408A; [3]): 0.190
MICb Alone (EKO-35 acrBD408A; EKO-35 acrBD408A, antibiotic alone (PAβN checkerboard)): 2 µg/mL
MICb Combined (EKO-35 acrBD408A; EKO-35 acrBD408A, antibiotic in combination with PAβN): 0.13 µg/mL
Effect (EKO-35 acrBD408A; [4]): Synergistic (Synergy (FICI ≤0.5))
FICI (EKO-35 acrBD408A; [4]): 0.500
MICb Alone (EKO-35 acrBD408A; strain EKO-35 acrBD408A, antibiotic alone): 2 µg/mL
MICb Combined (EKO-35 acrBD408A; strain EKO-35 acrBD408A, antibiotic in combination with NMP): 0.5 µg/mL
Effect (EKO-35; EKO-35, NMP + antibiotic): Synergistic
Effect (EKO-35; EKO-35, PAβN + antibiotic): Synergistic
FICI (EKO-35; EKO-35, PAβN + antibiotic): 0.093
MICb Alone (EKO-35; EKO-35, antibiotic alone (PAβN checkerboard)): 2 µg/mL
MICb Combined (EKO-35; EKO-35, antibiotic in combination with PAβN): 0.06 µg/mL
interaction of NMP in combination with the labelled antibiotic (FICI) (EKO-35; EKO-35 and EKO-35 acrBD408A): low-level synergy
interaction of PAβN in combination with the labelled antibiotic (FICI) (EKO-35; efflux-deficient strains EKO-35, EKO-35 acrBD408A, ΔtolC): synergized
Effect (EKO-35; strain EKO-35, NMP + antibiotic): Synergistic (Synergy (FICI ≤0.5))
MICb Alone (EKO-35; strain EKO-35, antibiotic alone): 2 µg/mL
MICb Combined (EKO-35; strain EKO-35, antibiotic in combination with NMP): 0.25 µg/mL
Effect (ΔtolC-Pore; [5]): Synergistic (Synergy (FICI ≤0.5))
FICI (ΔtolC-Pore; [5]): 0.625
MICb Alone (ΔtolC-Pore; strain ΔtolC Pore, antibiotic alone): 4 µg/mL
MICb Combined (ΔtolC-Pore; strain ΔtolC Pore, antibiotic in combination with NMP): 0.5 µg/mL
Effect (ΔtolC-Pore; ΔtolC Pore, NMP + antibiotic): Synergistic
FICI (ΔtolC-Pore; ΔtolC Pore, NMP + antibiotic): 0.625
Effect (ΔtolC-Pore; ΔtolC Pore, PAβN + antibiotic): Synergistic
FICI (ΔtolC-Pore; ΔtolC Pore, PAβN + antibiotic): 0.188
MICb Alone (ΔtolC-Pore; ΔtolC Pore, antibiotic alone (PAβN checkerboard)): 1 µg/mL
MICb Combined (ΔtolC-Pore; ΔtolC Pore, antibiotic in combination with PAβN): 0.063 µg/mL
Effect (ΔtolC; strain ΔtolC, NMP + antibiotic): — (indifferent (FICI >1.0))
FICI (ΔtolC; strain ΔtolC, NMP + antibiotic): 1.000
MICb Alone (ΔtolC; strain ΔtolC, antibiotic alone): 4 µg/mL
MICb Combined (ΔtolC; strain ΔtolC, antibiotic in combination with NMP): 2 µg/mL
FICI (ΔtolC; ΔtolC, NMP + antibiotic): 1.000
Effect (ΔtolC; ΔtolC, PAβN + antibiotic): Synergistic
FICI (ΔtolC; ΔtolC, PAβN + antibiotic): 0.188
MICb Alone (ΔtolC; ΔtolC, antibiotic alone (PAβN checkerboard)): 4 µg/mL
MICb Combined (ΔtolC; ΔtolC, antibiotic in combination with PAβN): 0.25 µg/mL
